The subject of assay [1] is HEK-293 cells. The experiment in a line: Cytotoxicity, MTT-based microassay. The assay is classed as cell-based, human. The following applies: purified peptide, HEK-293, 72 h, 37 °C, 12.5–200 µM, mean of three independent experiments in triplicate, read-out: Active concentration (inhibitory concentration 50, IC50). As to the method: HEK-293 cells were cultured in DMEM medium, and incubated at 37 °C in a humidified atmosphere of 5% CO2. Cell viability was quantified after peptide incubation using a methylthiazolyldiphenyl-tetrazolium bromide (MTT)-based microassay. […] Then, 10 µL of MTT (5 mg mL^−1 in PBS) was added to each well and the cells were further incubated for 4 h in the dark. The formazan crystals formed by mitochondrial reductases in intact cells are insoluble in aqueous solutions and precipitate. Formazan crystals were dissolved using a solubilization solution (40% dimethylformamide in 2% glacial acetic acid, 16% sodium dodecyl sulfate, pH 4.7) followed by 1 h incubation at 37 °C under shaking (150 rpm). Finally, the absorbance of the resuspended formazan was measured at 570 nm. Data were analyzed with GraphPad Prism® 5.0 software to determine the inhibitory concentration 50 (IC50), which corresponds to the peptide concentration producing 50% cell death. Results were expressed as the mean of three independent experiments performed in triplicate.

The test system of assay [2] is Streptococcus pyogenes ATCC 19615. The assay is classed as cell-based. As to conditions: ATCC 19615, 18 h.
Excerpt: (§2) Lysogeny Broth (LB) was used for cultures of Acinetobacter baumannii ATCC 19606, Enterococcus faecalis ATCC 29212, Escherichia coli ATCC 25922, Klebsiella pneumoniae ATCC 13883, Pseudomonas aeruginosa ATCC 27853, and S. aureus ATCC 25923. Brain Heart Infusion (BHI) broth was used for cultures of Listeria ivanovii Li 4pVS2 and Streptococcus pyogenes ATCC 19615. Yeast peptone dextrose (YPD) medium was used for Candida species (C. albicans ATCC 90028 and C. parapsilosis ATCC 22019). MH (Mueller Hinton) broth was used for suspend centrifuged culture of bacteria and yeasts in logarithmic phase to an A630 of 0.01 (~10^6 cfu mL^−1), except for S. pyogenes, L. ivanovii, and E. faecalis that were suspended in their respective growth medium. […] A microplate reader (UVM 340, Asys Hitech) was used to monitor the antimicrobial susceptibility by measuring the change in A630. […] Each experiment was performed in triplicate with positive (0.7% formaldehyde) and negative (without peptide) inhibition controls.
For assay [3], the system named is methicillin-resistant S. aureus (MRSA). The assay can be described thus: Antibiofilm assay. The assay is classed as cell-based, Staphylococcus aureus. The procedure: (§1) Overnight cultures of microorganisms [E. coli 0157, methicillin-resistant S. aureus (MRSA), K. pneumoniae 1825971, or C. albicans clinical isolate obtained from a blood culture maintained at LACEN (Laboratório Central de Saúde do Distrito Federal, a Brazilian reference laboratory for clinical isolates in Brasília, Brazil)] grown in LB broth (BD Difco) were diluted 1 in 100 in LB and Todd-Hewitt broth (BD Difco) or BM2 minimal medium [62 mM potassium phosphate buffer, pH 7.0, 7 mM (NH4)2SO4, 2 mM MgSO4, 10 μM FeSO4, 0.5% glucose], and 100 μL per well was added into 96-well round-bottom microplates. Absorbance at 600 nm was used to assess the planktonic cell growth. Non-adherent planktonic cells were removed from microtiter wells and washed twice with deionized water. Adherent cells were stained with 0.1% crystal violet for 20 min. The microplate wells were washed twice with deionized water, air dried, and solubilized with 110 μL of 70% ethanol. […] Biofilm formation was assessed by measuring the absorbance at 600 nm using a microplate reader (Bio-Tek Instruments, Inc., USA). The microdilution method for cationic peptides was used to determine the MIC for planktonic cells. Three biological replicates were performed for each experiment involving eight technical replicates.

The test system of assay [4] is P. aeruginosa ATCC 27853. The assay can be described thus: SEM-FEG imaging. It counts as cell-based, Pseudomonas aeruginosa. The following applies: 25 µM (MIC) and 50 µM, 1 h, 37 °C. The procedure:
Bacteria in mid-logarithmic phase were collected by centrifugation ([…], 10 min, 4 °C), washed twice with PBS, and suspended in the same buffer at a density of 2 × 10^7 cfu mL^−1. […] As a negative control, cells were incubated in buffer without peptide. Microbial cells were then fixed with 2.5% glutaraldehyde, homogenized by gently inverting the tubes, and stored at 4 °C prior to SEM-FEG analysis. A Hitachi SU-70 Field Emission Gun Scanning Electron Microscope was used to record SEM-FEG images. The samples (gold plates where 20 µL of inoculum were deposited and dried under nitrogen) were fixed on an alumina SEM support with a carbon adhesive tape and were observed without metallization. In Lens Secondary electron detector (SE-Lower) was used to characterize our samples. The accelerating voltage was 1 kV and the working distance was around 15 mm. At least five to ten different locations were analyzed on each surface, leading to the observation of a minimum of 100 single cells.

Assay [5] has as its system Staphylococcus aureus ATCC 25923. It counts as cell-based. The following applies: ATCC 25923, 18 h.
Excerpt: as §2
For assay [6], the system named is Candida albicans ATCC 90028. It counts as cell-based. The following applies: ATCC 90028, 18 h.
Excerpt: as §2
Assay [7] concerns Klebsiella pneumoniae ATCC 13883. It counts as cell-based. The following applies: ATCC 13883, 18 h.
Excerpt: as §2
Assay [8] relates to E. coli ATCC 25922. The assay is classed as cell-based, Escherichia coli. The procedure: Exponentially growing bacteria in LB were harvested by centrifugation, washed three times in PBS and suspended in the same buffer to a final concentration of 10^7 cfu mL^−1. One hundred microliters of this bacterial suspension was incubated with a dose of peptide corresponding to twofold the MIC. Then, aliquots of 10 µL were withdrawn at different times, diluted in LB, and spread onto LB agar plates. The cfu were counted after overnight incubation at 37 °C.

Assay [9] has as its system E. coli ATCC 25922. The experiment in a line: SYTOX green uptake assay (membrane permeabilization). It counts as cell-based, Escherichia coli. As to conditions: 12.5 µM (twofold above the MIC), 1 h, 37 °C, PBS. As to the method: SG is impermeant to live cells and when the cell membrane is damaged, this dye penetrates into the cell and binds to intracellular DNA, due to its high-affinity to nucleic acids, leading to an increase in fluorescence. Exponentially growing bacteria (6 × 10^5 cfu mL^−1) were resuspended in PBS after centrifugation (1000 × g, 10 min, 4 °C) and washing steps. About 792 μL of the bacterial suspension was pre-incubated with 8 μL of 100 μM SG during 30 min at 37 °C in the dark. […] Results correspond to a representative experiment with negative (PBS) and positive (melittin) controls. Three independent experiments were performed.

The test system of assay [10] is Escherichia coli ATCC 25922. The assay can be described thus: Antimicrobial activity, MIC by twofold serial dilution. The assay is classed as cell-based. The following applies: purified peptide; MH broth, 18 h, 37 °C, A630; average of three independent experiments in triplicate.
Excerpt: as §2
Assay [11] concerns Enterococcus faecalis ATCC 29212. It counts as cell-based. The following applies: ATCC 29212, 18 h.
Excerpt: as §2
Assay [12] relates to Pseudomonas aeruginosa ATCC 27853. The assay is classed as cell-based. As to conditions: ATCC 27853, 18 h.
Excerpt: as §2
The subject of assay [13] is K. pneumoniae 1825971. The assay can be described thus: Antibiofilm assay. The assay is classed as cell-based, Klebsiella pneumoniae. The procedure: as §1

Peptide text beside a SMILES is read from it.

For the molecule `CC[C@H](C)[C@H](NC(=O)[C@H](CCCNC(=N)N)NC(=O)[C@H](Cc1ccc(O)cc1)NC(=O)CNC(=O)[C@H](Cc1ccc(O)cc1)NC(=O)[C@H](CCCNC(=N)N)NC(=O)[C@H](CC(C)C)NC(=O)[C@H](C)NC(=O)[C@H](CCC(N)=O)NC(=O)[C@H](CCC(=O)O)NC(=O)[C@@H](NC(=O)[C@H](CCC(N)=O)NC(=O)[C@H](CCCNC(=N)N)NC(=O)[C@H](CCSC)NC(=O)[C@H](Cc1ccc(O)cc1)NC(=O)[C@H](CCC(N)=O)NC(=O)[C@@H](N)CCCNC(=N)N)[C@@H](C)CC)C(=O)N[C@@H](CO)C(=O)N[C@@H](CCCNC(=N)N)C(=O)N[C@@H](CCCNC(=N)N)C(N)=O` [Guavanin 2] (H-RQYMRQIEQALRYGYRISRR-NH2), the IC50 in [1] is above 200 µM. The “Active concentration (MIC)” value is given as 50 µM in assay [2]; 100 µM in [5]; above 200 µM in assay [6]; 80 µM in assay [7]; 6.25 µM in [10]; above 100 µM in assay [11]. Besides, the “Active concentration (MIC)” value in assay [12] is on record as 25 µM. Also, the antibiofilm activity entry in assay [3] and in assay [13] was “only able to reduce C. albicans biofilms” in each case. In assay [4], the “membrane effect seen in SEM-FEG images” value is on record as “membrane damage (deformations/indentations)”. Also, in assay [8] (12.5 µM (twofold above the MIC), 120 min), the “colony-forming units remaining (from 10^7)” value is recorded as ~ 10^5 colony-forming units. In assay [8] (time–kill, E. coli), the “killing speed relative to [I^5, R^8] mastoparan” value is given as “eightfold slower”. In addition, the “SYTOX Green influx (membrane permeabilization)” value in assay [9] is “only a slow and very small amount of dye influx”.

The values above are taken from article PMC5902452, “In silico optimization of a guava antimicrobial peptide enables combinatorial exploration for peptide design” (Nature Communications, 2018).
